Test results from patent publication US20260027116A1, “Methods of Treating Chronic Graft-Versus-Host Disease Following Allogeneic Hematopoietic Stem Cell Transplantation” (Kadmon Corporation, LLC, priority 2022, published 2026).

Tested on: patients with cGVHD
Settings: Cohort 2 200 mg BID
Description: All responses were assessed by the investigators.
Reported Adverse Events. […] All-cause mortality data collected during the study were assessed for all enrolled participants. Disease progression related death was not reported as AE.
Number of Participants With Treatment-emergent Adverse Events (TEAEs), and Treatment-emergent Serious Adverse Events (TESAEs). […] TEAEs included both SAEs and non-SAEs. […] Analysis was performed on safety population which included all participants who received at least 1 dose of study medication.

**Q.** What does the source list for `CC(C)NC(=O)COc1cccc(-c2nc(Nc3ccc4[nH]ncc4c3)c3ccccc3n2)c1` [Belumosudil, 2-{3-[4-(1H-indazol-5-ylamino)-2-quinazolinyl]phenoxy}-N-(propan-2-yl) acetamide]?
**A.** Macular degeneration: Affected/At Risk (%): 1/16 (6.25%); Migraine: # Events: 1; Migraine: Affected/At Risk (%): 1/16 (6.25%); Muscle spasms: # Events: 0; Muscle spasms: Affected/At Risk (%): 0/16 (0%); Muscle spasticity: # Events: 0; Muscle spasticity: Affected/At Risk (%): 0/16 (0%); Muscular weakness: # Events: 1; Muscular weakness: Affected/At Risk (%): 1/16 (6.25%); Musculoskeletal chest pain: # Events: 0; Musculoskeletal chest pain: Affected/At Risk (%): 0/16 (0%); Myalgia: # Events: 1; Myalgia: Affected/At Risk (%): 1/16 (6.25%); Nail disorder: # Events: 0; Nail disorder: Affected/At Risk (%): 0/16 (0%); Nasal congestion: Affected/At Risk (%): 0/16 (0%); Nausea: # Events: 6; Nausea: Affected/At Risk (%): 4/16 (25%); Neck pain: # Events: 0; Neck pain: Affected/At Risk (%): 0/16 (0%); Nephrotic syndrome: # Events: 1; Nephrotic syndrome: Affected/At Risk (%): 1/16 (6.25%); Neuropathy peripheral: # Events: 1; Neuropathy peripheral: Affected/At Risk (%): 1/16 (6.25%); Neutrophil count decreased: # Events: 0; Neutrophil count decreased: Affected/At Risk (%): 0/16 (0%); Nocturia: # Events: 0; Nocturia: Affected/At Risk (%): 0/16 (0%); Non-cardiac chest pain: # Events: 3; Non-cardiac chest pain: Affected/At Risk (%): 3/16 (18.75%); Obesity: # Events: 0; Obesity: Affected/At Risk (%): 0/16 (0%); Oedema peripheral: # Events: 5; Oedema peripheral: Affected/At Risk (%): 4/16 (25%); Oedema: # Events: 1; Oedema: Affected/At Risk (%): 1/16 (6.25%); Oesophageal ulcer: # Events: 1; Oesophageal ulcer: Affected/At Risk (%): 1/16 (6.25%); Oral candidiasis: # Events: 1; Oral candidiasis: Affected/At Risk (%): 1/16 (6.25%); Oropharyngeal pain: # Events: 0; Oropharyngeal pain: Affected/At Risk (%): 0/16 (0%); Orthopnoea: # Events: 0; Orthopnoea: Affected/At Risk (%): 0/16 (0%); Osteonecrosis: # Events: 0; Osteonecrosis: Affected/At Risk (%): 0/16 (0%); Osteopenia: # Events: 1; Osteopenia: Affected/At Risk (%): 1/16 (6.25%); Osteoporosis: # Events: 1; Osteoporosis: Affected/At Risk (%): 1/16 (6.25%); Overdose: # Events: 0; Overdose: Affected/At Risk (%): 0/16 (0%); Pain in extremity: # Events: 3; Pain in extremity: Affected/At Risk (%): 2/16 (12.5%); Pain: # Events: 0; Pain: Affected/At Risk (%): 0/16 (0%); Palpitations: # Events: 0; Palpitations: Affected/At Risk (%): 0/16 (0%); Paraesthesia: # Events: 1; Paraesthesia: Affected/At Risk (%): 1/16 (6.25%); Pericardial effusion: # Events: 0; Pericardial effusion: Affected/At Risk (%): 0/16 (0%); Peripheral coldness: # Events: 0; Peripheral coldness: Affected/At Risk (%): 0/16 (0%); Peripheral sensory neuropathy: # Events: 1; Peripheral sensory neuropathy: Affected/At Risk (%): 1/16 (6.25%); Phlebitis: # Events: 1; Phlebitis: Affected/At Risk (%): 1/16 (6.25%); Photophobia: # Events: 1; Photophobia: Affected/At Risk (%): 1/16 (6.25%); Platelet count decreased: # Events: 0; Platelet count decreased: Affected/At Risk (%): 0/16 (0%); Pleural effusion: # Events: 0; Pleural effusion: Affected/At Risk (%): 0/16 (0%); Pneumonia respiratory syncytial viral: # Events: 1; Pneumonia respiratory syncytial viral: Affected/At Risk (%): 1/16 (6.25%); Pneumonia: # Events: 3; Pneumonia: Affected/At Risk (%): 3/16 (18.75%); Pollakiuria: # Events: 0; Pollakiuria: Affected/At Risk (%): 0/16 (0%); Presyncope: # Events: 3; Presyncope: Affected/At Risk (%): 3/16 (18.75%); Productive cough: # Events: 7; Productive cough: Affected/At Risk (%): 2/16 (12.5%); Proteinuria: # Events: 1; Proteinuria: Affected/At Risk (%): 1/16 (6.25%); Pruritus: # Events: 4; Pruritus: Affected/At Risk (%): 2/16 (12.5%); Pseudomonas infection: # Events: 2; Pseudomonas infection: Affected/At Risk (%): 1/16 (6.25%); Pulmonary mass: # Events: 1; Pulmonary mass: Affected/At Risk (%): 1/16 (6.25%); Pyrexia: # Events: 6; Pyrexia: Affected/At Risk (%): 3/16 (18.75%); Rash erythematous: # Events: 1; Rash erythematous: Affected/At Risk (%): 1/16 (6.25%); Rash maculo-papular: # Events: 0; Rash maculo-papular: Affected/At Risk (%): 0/16 (0%); Rash pustular: # Events: 1; Rash pustular: Affected/At Risk (%): 1/16 (6.25%); Rash: # Events: 1; Rash: Affected/At Risk (%): 1/16 (6.25%); Red blood cells urine positive: # Events: 1; Red blood cells urine positive: Affected/At Risk (%): 1/16 (6.25%); Renal failure: # Events: 1; Renal failure: Affected/At Risk (%): 1/16 (6.25%); Respiratory syncytial virus infection: # Events: 1; Respiratory syncytial virus infection: Affected/At Risk (%): 1/16 (6.25%); Respiratory tract infection fungal: # Events: 0; Respiratory tract infection fungal: Affected/At Risk (%): 0/16 (0%); Respiratory tract infection: # Events: 0; Respiratory tract infection: Affected/At Risk (%): 0/16 (0%); Restless legs syndrome: # Events: 1; Restless legs syndrome: Affected/At Risk (%): 1/16 (6.25%); Rosacea: # Events: 1; Rosacea: Affected/At Risk (%): 1/16 (6.25%); SAE, No. (%): 6 (38); Sinus pain: # Events: 0; Sinus pain: Affected/At Risk (%): 0/16 (0%); Sinusitis: # Events: 4; Sinusitis: Affected/At Risk (%): 2/16 (12.5%); Skin abrasion: # Events: 0; Skin abrasion: Affected/At Risk (%): 0/16 (0%); Skin lesion: # Events: 1; Skin lesion: Affected/At Risk (%): 1/16 (6.25%); Skin papilloma: # Events: 0; Skin papilloma: Affected/At Risk (%): 0/16 (0%); Spinal compression fracture: # Events: 0; Spinal compression fracture: Affected/At Risk (%): 0/16 (0%); Squamous cell carcinoma of skin: # Events: 2; Squamous cell carcinoma of skin: Affected/At Risk (%): 2/16 (12.5%); Stomatitis: # Events: 1; Stomatitis: Affected/At Risk (%): 1/16 (6.25%); Superior vena cava syndrome: # Events: 2; Superior vena cava syndrome: Affected/At Risk (%): 1/16 (6.25%); TEAE, participants (%): 16 (100%) participants; TESAE, participants (%): 6 (38%) participants; Tachycardia: # Events: 0; Tachycardia: Affected/At Risk (%): 0/16 (0%); Tendonitis: # Events: 1; Tendonitis: Affected/At Risk (%): 1/16 (6.25%); Testicular pain: # Events: 0; Testicular pain: Affected/At Risk (%): 0/16 (0%); Testicular swelling: # Events: 0; Testicular swelling: Affected/At Risk (%): 0/16 (0%); Thoracic spinal stenosis: # Events: 0; Thoracic spinal stenosis: Affected/At Risk (%): 0/16 (0%); Thrombocytopenia: # Events: 1; Thrombocytopenia: Affected/At Risk (%): 1/16 (6.25%); Thrombocytosis: # Events: 0; Thrombocytosis: Affected/At Risk (%): 0/16 (0%); Tinea pedis: # Events: 1; Tinea pedis: Affected/At Risk (%): 1/16 (6.25%); Tooth fracture: # Events: 1; Tooth fracture: Affected/At Risk (%): 1/16 (6.25%); Total other adverse events: Affected/At Risk (%): 16/16 (100%); Transfusion reaction: # Events: 0; Transfusion reaction: Affected/At Risk (%): 0/16 (0%); Tremor: # Events: 2; Tremor: Affected/At Risk (%): 1/16 (6.25%); Type 2 diabetes mellitus: # Events: 0; Type 2 diabetes mellitus: Affected/At Risk (%): 0/16 (0%); Ulcerative keratitis: # Events: 1; Ulcerative keratitis: Affected/At Risk (%): 1/16 (6.25%); Upper respiratory tract infection: # Events: 13; Upper respiratory tract infection: Affected/At Risk (%): 9/16 (56.25%); Upper-airway cough syndrome: # Events: 2; Upper-airway cough syndrome: Affected/At Risk (%): 2/16 (12.5%); Urinary retention: # Events: 2
